Source: ChEMBL document CHEMBL1201862, “PubChem BioAssay data set” (2004)
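Briefly, cells in 96-well plates were exposed to five compound concentrations for 48 h, and endpoints were estimated by linear interpolation. Abbreviation: GI50, concentration required for 50% inhibition of growth.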 Active and inactive are the calls of the source. Rule as the data show it: active = GI50 up to about 1.1 µM and inactive = higher.

What was measured:
Experiment in all cases: NCI-60 cell line screen, 48 h
NCI-H460 = test system: NCI-H460
M14 = test system: M14
SF-295 = test system: SF-295
PC-3 = test system: PC-3
A549 = test system: A549
UO-31 = test system: UO-31
KM12 = test system: KM12
SN12C = test system: SN12C
UACC-62 = test system: UACC-62
HOP-92 = test system: HOP-92
LOX IMVI = test system: LOX IMVI
NCI-H226 = test system: NCI-H226
IGROV-1 = test system: IGROV-1
BT-549 = test system: BT-549
T47D = test system: T47D
SW-620 = test system: SW-620
RPMI-8226 = test system: RPMI-8226
SK-MEL-5 = test system: SK-MEL-5
SK-OV-3 = test system: SK-OV-3
SR = test system: SR

Measured: GI50

C[C@@H]1C[C@@]2(O[C@@H]2C)C(=O)O[C@@H]2CCN3CC=C(COC(=O)[C@]1(C)O)[C@H]23
inactive: NCI-H460 > 100 µM | M14 > 100 µM | SF-295 > 100 µM | PC-3 > 100 µM | A549 > 100 µM | UO-31 > 100 µM | KM12 > 100 µM | SN12C > 100 µM | UACC-62 > 100 µM | HOP-92 10.7 µM | LOX IMVI > 100 µM | NCI-H226 > 100 µM | IGROV-1 > 100 µM | BT-549 > 100 µM | T47D > 100 µM | SW-620 > 100 µM | RPMI-8226 > 100 µM | SK-MEL-5 > 100 µM | SK-OV-3 > 100 µM

O=C(O)CCO/N=C1/C(=C2/C(=O)Nc3ccccc32)Nc2ccccc21
inactive: NCI-H460 17.6 µM | M14 19.6 µM | SF-295 35.1 µM | PC-3 25.4 µM | A549 22.5 µM | UO-31 12 µM | KM12 1.16 µM | SN12C 23.7 µM | UACC-62 14.7 µM | HOP-92 36.1 µM | LOX IMVI 12.4 µM | IGROV-1 11.9 µM | BT-549 24.5 µM | T47D 13.3 µM | SW-620 29.7 µM | SR 12 µM | RPMI-8226 42.2 µM | SK-MEL-5 13.4 µM | SK-OV-3 2.98 µM

CCc1n[nH]c(=O)n1NC(=O)/C=C\C(=O)O
inactive: NCI-H460 > 100 µM | M14 > 100 µM | SF-295 > 100 µM | PC-3 > 100 µM | A549 > 100 µM | SN12C > 100 µM | UACC-62 > 100 µM | NCI-H226 > 100 µM | IGROV-1 > 100 µM | BT-549 > 100 µM | T47D > 100 µM | SR > 100 µM | SK-MEL-5 > 100 µM | SK-OV-3 > 100 µM

C=C1CC[C@]2(C)[C@H](CC[C@@]34C[C@@H](CC[C@H]32)[C@@H](C(=O)O)C4)C1(C)C
inactive: NCI-H460 5.19 µM | M14 > 12.5 µM | SF-295 8.24 µM | PC-3 10.3 µM | A549 5.22 µM | UO-31 7.28 µM | KM12 > 12.5 µM | SN12C > 12.5 µM | UACC-62 > 12.5 µM | HOP-92 5.5 µM | LOX IMVI > 12.5 µM | NCI-H226 > 12.5 µM | IGROV-1 > 12.5 µM | BT-549 > 12.5 µM | SW-620 > 12.5 µM | SR 6.37 µM | SK-MEL-5 8.24 µM | SK-OV-3 > 12.5 µM

O=c1[nH]c(Nc2nc3ccccc3[nH]2)nc2c1CCC2
inactive: NCI-H460 > 100 µM | M14 > 100 µM | SF-295 76.9 µM | PC-3 > 100 µM | A549 > 100 µM | UO-31 > 100 µM | SN12C > 100 µM | UACC-62 > 100 µM | HOP-92 30.8 µM | LOX IMVI > 100 µM | NCI-H226 63.1 µM | IGROV-1 > 100 µM | BT-549 35.5 µM | SW-620 > 100 µM | SR 28 µM | SK-MEL-5 > 100 µM | SK-OV-3 41.8 µM

C=C(C)[C@@H]1CC[C@]2(COC(C)=O)CC[C@]3(C)[C@H](CC[C@@H]4[C@@]5(C)CC[C@H](OC(C)=O)C(C)(C)[C@@H]5CC[C@]43C)[C@@H]12 [BETULIN DIACETATE]
inactive: M14 > 50 µM | PC-3 > 50 µM | A549 > 50 µM | UO-31 > 50 µM | SN12C > 50 µM | UACC-62 > 50 µM | HOP-92 > 31.6 µM | LOX IMVI > 50 µM | NCI-H226 > 50 µM | IGROV-1 > 50 µM | BT-549 > 50 µM | SW-620 > 50 µM | SR > 50 µM | RPMI-8226 > 50 µM | SK-MEL-5 > 50 µM | SK-OV-3 > 50 µM

O=C(O)c1ccccc1NC(=S)c1ccccc1
inactive: NCI-H460 53.2 µM | M14 70.5 µM | SF-295 35.2 µM | PC-3 34.5 µM | A549 51.3 µM | UO-31 51.8 µM | KM12 50.2 µM | SN12C 66.4 µM | UACC-62 30.3 µM | HOP-92 11.8 µM | LOX IMVI 30.5 µM | IGROV-1 25.1 µM | BT-549 33 µM | T47D 34.2 µM | SW-620 46.5 µM | RPMI-8226 28.2 µM | SK-MEL-5 38.5 µM | SK-OV-3 76.4 µM
